Experimental data taken from US6262095A, “Use of tricyclic derivatives of 1,4-dihydro-1,4-dioxo-1H-naphthalene, novel compounds obtained and their application in theraphy” (Laboratoire Innothera, priority 1995, dated 2001).

Legend:
[1] = test system: saphenous vein in rabbits; assay: Potentiation of the contractile response of the rabbit saphenous vein to noradrenaline; format: cell-based
Procedure: (§1) The contractile effects are measured in vitro under static conditions on vascular capacitance or resistance rings of saphenous, femoral, jugular, mesenteric, and caval veins . . . and on femoral, carotid, basilar, or mesenteric arteries, as well as the thoracic or abdominal aorta . . . in rats (Wistar, 200-250 g), rabbits (New Zealand, 2-2.5 kg), guinea pigs (Dunkin Hartley 250-300 g).
(§2) The rings are placed in a chamber for isolated organs (25 mL for capacitance vessels and 2.5 mL for resistance vessels according to Mulvany), and maintained under isometric conditions using two rigid threads inserted inside the vessel, avoiding causing damage to the endothelium. The vessels are bathed in a modified Krebs solution (in mM: NaCl=118; KCl=4.6; CaCl2 =2.5; MgSO4 =1.2; KH2 PO4 =1.17; NaHCO3 =25; glucose=11), continuously aerated using a gaseous mixture of 95% O2 and 5% Co2, at a pH=7.4, and regulated by thermostat at 37° C. The rings are adjusted to their optimal point as far as the tension-length relationship is concerned. […] The pharmacological studies are carried out after a few standardized preliminary contractile stimulations using a depolarizing solution (hyperpotassic type obtained by replacing NaCl with KCl in equimolar quantities), along with rinsings and periods of equilibration in a pure physiological solution. […]

jugular vein of rabbits = assay: Contraction of rabbit jugular vein under depolarizing hyperpotassic conditions; format: cell-based; settings: Oryctolagus cuniculus, pH 7.4, read-out: ED50 (contraction)
Procedure: as §1, §2

[2] = test system: perfused mesenteric venous network of rats; assay: Contraction of the perfused mesenteric venous network of rats; format: cell-based; settings: rat perfused mesenteric venous network, depolarizing hyperpotassic conditions; read-out: ED50 (contraction)
Procedure: The contractile effects are also measured in vitro under dynamic flow conditions, by the pressure developed by the vascular beds that are perfused at a constant flow rate. At the mesenteric level, the selective effect on veins is studied using the model of a double simultaneous and separate infusion of the arterial and venous networks model developed by T. Warner (British J. Pharmacol., 1990, Vol. 99, pp. 427-433). The separation of the two networks is achieved by cutting the vessels and the tissues along the intestinal border. The networks are perfused at 2 mL.min^-1 with a Krebs solution (37.5° C.), which is aerated using 95% O2 and 5% CO2. In vivo, the arterial and venous pressures are measured in the anesthetized animal, under basal conditions and after circulatory arrest caused by the swelling of a balloon catheter introduced at the level of the left atrium. During the cardiac arrest, the venous tone (average circulatory filling pressure at a constant blood volume) is calculated from the venous and arterial pressures measured at equilibrium and corrected as a function of the relative differences in compliance between these two networks (Samar & Coleman, Am. J. Physiol., 1978, Vol. 234: pp. H94-100; Yamamoto et al., Am. J. Physiol., 1980, Vol. 238: pp. H823-828).

[3] = test system: carotid arteries of rabbits; assay: Contraction of rabbit carotid arteries under depolarizing hyperpotassic conditions; format: cell-based; settings: Oryctolagus cuniculus, pH 7.4, read-out: ED50 (contraction)
Procedure: as §1, §2

[4] = test system: basilar artery of rabbits; assay: Contraction of rabbit basilar artery under depolarizing hyperpotassic conditions; format: cell-based
Procedure: as §1, §2

[5] = test system: hyperpermeability induced by histamine in rats; assay: Hyperpermeability induced by histamine in rats; format: in vivo, rat (Wistar); settings: rat, oral 0.1 mg/kg, after 2 h, compared to the control group
Procedure: The vascular permeability is studied in vivo by measuring the extravasation of albumin, the quantity of which is determined using an albumin-binding dye (Evans blue).
The hyperpermeability is induced by the intradermal injection of a solution of histamine, bradykinin, or zymosan.
The technique is derived from that described by Beach & Steinetz, J. Pharmacol. Exp. Therap., 1961, Vol. 131: pp. 400-406.
The abdominal walls of the rats (Wistar, 200-230 g) are shorn 1 h before the start of the experiment. The product to be tested is injected by the intraperitoneal route or orally 1-4 h before the sacrifice. The rats are anesthetized with a halothane mixture. […]
At the site of the injection of the inflammatory agent, the skin is cut and placed into glass tubes with a ground[-glass] neck containing 3 mL of fuming hydrochloric acid. […] The optical densities are quantified by absorption spectrophotometry at a wavelength of 620 nm, against a blank [control] containing only dichloromethane. The averages of the optical densities of the different lots of treated or control animals are calculated, then a percentage of variation of the values corresponding to the treated [experimental] animals compared to those of the control animals is calculated.

septic shock in rats = assay: Septic shock induced by LPS in rats; format: in vivo; settings: rat, 28 mg/kg i.v. bolus 5 min before induction of septic shock, compared to control group
Procedure: The activity in septic shock is studied in rats after the induction of the shock by an intravenous injection in the bolus of a lipopolysaccharide endotoxin (LPS: 15 mg/kg) of E. col, in a method similar to that described by Terashita et al., Eur. J. Pharmacol., 1985, Vol. 109: pp. 257-261. The arterial pressures are measured as a function of time and comparatively between treated groups and control groups (excipient alone). The compounds are administered intravenously or orally, 5 min or 2 h, respectively, before the injection of LPS.

O=C1c2ccccc2C(=O)c2sc(-c3ccco3)nc21 [Example n, 4,9-Dihydro-4,9-dioxo-2-(2-furyl)-naphtho[2,3-d]thiazole]
change of noradrenaline ED50 [1]: reduced by a factor of ten
Emax ([1]; Oryctolagus cuniculus, read-out: increase of noradrenaline Emax): 30%
EC50 (jugular vein of rabbits): 16 nM
EC50 [2]: 300 nM
EC50 [3]: 120 nM
contraction of basilar artery [4]: contracts
decrease of hyperpermeability induced by histamine [5]: 26%
increase of average arterial pressure (septic shock in rats): 20 mm of mercury
